Experimental findings from patent US20110207723A1, “NOVEL FUSED AMINODIHYDROTHIAZINE DERIVATIVE” (EISAI R&D MANAGEMENT CO., LTD., priority 2008, published 2011) are described below.

pIC50: −log10 of the molar value.

This assay has as its system Aβ42 production. Put plainly: Quantification of Aβ peptide in culture of neurons from rat fetus brain (Aβ42 ELISA). It is filed as cell-based. The following applies: Neuron, 72 h, rat primary neuronal culture (embryonic day 18 Wistar rat cerebral cortex), medium collected three days after addition of compound, read-out: Aβ42 production reducing effect IC50. The method in brief: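 Primary cortical neurons from E18 Wistar rat embryos, cultured 4 days in Neurobasal/B27/2-ME, then treated 3 days with compound in Neurobasal/B27 (final DMSO 1% or less; DMSO control). Conditioned medium collected; Aβx-42 measured undiluted by sandwich ELISA kit.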
In general terms: ELISA stands for enzyme-linked immunosorbent assay.
With `N#Cc1ccc(C(=O)Nc2ccc(F)c([C@]34CO[C@@H](CO)C[C@H]3CSC(N)=N4)c2)nc1` [Example 34, N-[3-((4aR,6R,8aS)-2-amino-6-hydroxymethyl-4,4a,5,6-tetrahydro-7-oxa-3-thia-1-azanaphthalen-8a-yl)-4-fluorophenyl]-5-cyanopyridine-2-carboxamide], the negative-log IC50 (pIC50) (as a rule, the IC50 on a negative log10 scale, so that one unit is a factor of ten) was 8.70.

Turning to `N#Cc1ccc(C(=O)Nc2ccc(F)c([C@]34CO[C@@H](CF)C[C@H]3CSC(N)=N4)c2)nc1` [Example 44, N-[3-((4aR,6R,8aS)-2-amino-6-fluoromethyl-4,4a,5,6-tetrahydro-7-oxa-3-thia-1-azanaphthalen-8a-yl)-4-fluorophenyl]-5-cyanopyridine-2-carboxamide], the pIC50 is 9.15. Under `NC1=N[C@@]2(c3cc(NC(=O)c4ccc(Cl)cn4)ccc3F)CO[C@@H](CF)C[C@H]2CS1` [Example 45, N-[3-((4aR,6R,8aS)-2-amino-6-fluoromethyl-4,4a,5,6-tetrahydro-7-oxa-3-thia-1-azanaphthalen-8a-yl)-4-fluorophenyl]-5-chloropyridine-2-carboxamide] stands 8.70; under `NC1=N[C@@]2(c3cc(NC(=O)c4ccc(C(F)(F)F)cn4)ccc3F)CO[C@@H](CF)C[C@H]2CS1` [Example 46, N-[3-((4aR,6R,8aS)-2-amino-6-fluoromethyl-4,4a,5,6-tetrahydro-7-oxa-3-thia-1-azanaphthalen-8a-yl)-4-fluorophenyl]-5-trifluoromethylpyridine-2-carboxamide], 9.00. For `NC1=N[C@@]2(c3cc(NC(=O)c4cnc(OCF)cn4)ccc3F)CO[C@@H](CF)C[C@H]2CS1` [Example 47, N-[3-((4aR,6R,8aS)-2-amino-6-fluoromethyl-4,4a,5,6-tetrahydro-7-oxa-3-thia-1-azanaphthalen-8a-yl)-4-fluorophenyl]-5-fluoromethoxypyrazine-2-carboxamide], the pIC50 is 8.40.

For `NC1=N[C@@]2(c3cc(NC(=O)c4cnc(C(F)F)cn4)ccc3F)CO[C@@H](CF)C[C@H]2CS1` [Example 48, N-[3-((4aR,6R,8aS)-2-amino-6-fluoromethyl-4,4a,5,6-tetrahydro-7-oxa-3-thia-1-azanaphthalen-8a-yl)-4-fluorophenyl]-5-difluoromethylpyrazine-2-carboxamide], the pIC50 is 8.70. Under `NC1=N[C@@]2(c3cc(-c4cccnc4F)ccc3F)CO[C@@H](CF)C[C@H]2CS1` [Example 60, (4aR,6R,8aS)-8a-[2-fluoro-5-(2-fluoropyridin-3-yl)phenyl]-6-fluoromethyl-4,4a,5,6,8,8a-hexahydro-7-oxa-3-thia-1-azanaphthalen-2-ylamine] stands 7.49; under `NC1=N[C@@]2(c3cc(-c4cccnc4F)ccc3F)CO[C@@H](COCc3ccccc3)C[C@H]2CS1` [Example 66, (4aR,6R,8aS)-8a-[2-fluoro-5-(2-fluoropyridin-3-yl)phenyl]-6-benzyloxymethyl-4,4a,5,6,8,8a-hexahydro-7-oxa-3-thia-1-azanaphthalen-2-ylamine], 6.58.
